Test results published in patent US20240252527A9, “NUCLEOSIDE DRUGS FOR THE TREATMENT OR PREVENTION OF CORONAVIRUS INFECTION AND THEIR USES” (Miracure Biotechnology Limited, priority 2022, published 2024).
Like-named read-outs stand apart in the source and are kept apart here.

Legend:
229E = 229E MRC5 CPE assay (cytopathic experiment); format: cell-based, coronavirus 229E (HCoV-229E)
Procedure: (§1) Cells were seeded into microplates at a certain density and cultured overnight in a incubator at 5% CO2, 37° C. The next day, double-diluted compound and virus were added. It was set up a cell control group (cells without treatment with a compound or virus infection), a virus control group (cells infected with virus, no compound treatment) and a culture medium control group (medium only). Cells were cultured in the incubator for 3 days (229E) or 7 days (OC43). Cytotoxicity experiments were performed under the same conditions as antiviral experiments, but without virus infection. Cell viability was tested using a cell viability assay kit Cell Titer Glo (Promega).
(§2) The antiviral activity and cytotoxicity of the compounds were expressed by the inhibition rate (%) and cell viability (%) of the compounds against virus-induced cytopathic effects at different concentrations, respectively. Nonlinear fitting analysis on the inhibition rate and cell viability of the compounds were carried out with the GraphPad Prism, and the half effective concentration (EC50), the […] effective concentration (EC90), the half cytotoxic concentration (CC50) and the 90% cytotoxic concentration of the compound […] values were calculated.

OC43 = OC43 Huh7 CPE assay (cytopathic experiment); format: cell-based, coronavirus OC43 (HCoV-OC43); conditions: for EC50: read-out: OC43 Huh7 CPE assay (μM) EC50; for EC90: read-out: OC43 Huh7 CPE assay (μM) EC90
Procedure: as §1, §2

[1] = Human coronavirus 229E, MRC5, 72 h; read-out: 229E MRC5 CPE assay (μM) EC50
[2] = Human coronavirus 229E, MRC5, 72 h; read-out: 229E MRC5 CPE assay (μM) EC90
[3] = Betacoronavirus 1, Huh-7, 168 h, Huh7 cells, OC43 virus, 7 days, Cell Titer Glo
[4] = Human coronavirus 229E, MRC5, 72 h, read-out: 229E MRC5 CPE assay (μM) EC50
[5] = Human coronavirus 229E, MRC5, 72 h, read-out: 229E MRC5 CPE assay (μM) EC90
[6] = Betacoronavirus 1, OC43, Huh-7, 168 h

Row | SMILES | EC50 (229E; [1]) [µM] | EC90 (229E; [2]) [µM] | EC50 (OC43; [3]) [µM] | EC90 (OC43; [3]) [µM] | EC50 (229E; [4]) [µM] | EC90 (229E; [5]) [µM] | EC50 (OC43; [6]) [µM] | EC90 (OC43; [6]) [µM]
1 | CCC(CC)COC(=O)[C@H](C)NP(=O)(OC[C@H]1O[C@@](C#N)(c2ccc3c(N)ncnn23)[C@H](O)[C@@H]1O)Oc1ccc(Nc2ccnc3cc(Cl)ccc23)cc1CN(CC)CC (stereo partly shown) [Compound 016] | > 0.5 | > 0.5 | > 0.5 | > 0.5 | – | – | – | –
2 | CCC(CC)COC(=O)[C@H](C)NP(=O)(OC[C@H]1O[C@@](C#N)(c2ccc3c(N)ncnn23)[C@H](O)[C@@H]1O)ONC(=N)c1ccccc1 (stereo partly shown) [Compound 028] | – | – | – | – | > 0.5 | > 0.5 | > 0.5 | > 0.5
3 | CCCC(CCC)C(=O)OCOP(=O)(NC(C)(C)C(=O)OC(C)C)OC[C@H]1O[C@@](C#N)(c2ccc3c(N)ncnn23)[C@H](O)[C@@H]1O (stereo partly shown) [Compound 034] | – | – | – | – | 0.1 to 0.5 | > 0.5 | 0.1 to 0.5 | > 0.5
4 | CCCC(CCC)C(=O)OCO[P@](=O)(N[C@H](C)C(=O)OC(C)C)OC[C@H]1O[C@@](C#N)(c2ccc3c(N)ncnn23)[C@H](O)[C@@H]1O [Compound 036] | – | – | – | – | 0.1 to 0.5 | 0.1 to 0.5 | 0.1 to 0.5 | > 0.5
5 | CCCC(CCC)C(=O)O[C@@H]1[C@@H]2OP(=O)(O)OC[C@H]2O[C@@]1(C#N)c1ccc2c(N)ncnn12 [Compound 057] | – | – | – | – | > 0.5 | > 0.5 | 0.1 to 0.5 | > 0.5
6 | CCC(CC)COC(=O)[C@H](C)N[P@](=O)(OC[C@H]1O[C@@](C#N)(c2ccc3c(N)ncnn23)[C@H](O)[C@@H]1O)Oc1ccc(Nc2ccnc3cc(Cl)ccc23)cc1CN(CC)CC [Compound 062] | > 0.5 | > 0.5 | > 0.5 | > 0.5 | – | – | – | –
7 | CCC(CC)COC(=O)[C@H](C)N[P@@](=O)(OC[C@H]1O[C@@](C#N)(c2ccc3c(N)ncnn23)[C@H](O)[C@@H]1O)Oc1ccc(Nc2ccnc3cc(Cl)ccc23)cc1CN(CC)CC [Compound 063] | > 0.5 | > 0.5 | > 0.5 | > 0.5 | – | – | – | –
8 | CCC(CC)COC(=O)[C@H](C)N[P@@](=O)(OCCN(CC)CCCC(C)Nc1ccnc2cc(Cl)ccc12)OC[C@H]1O[C@@](C#N)(c2ccc3c(N)ncnn23)[C@H](O)[C@@H]1O (stereo partly shown) [Compound 068] | – | – | – | – | > 0.5 | > 0.5 | > 0.5 | > 0.5
9 | CCC(CC)COC(=O)[C@H](C)N[P@](=O)(OCCN(CC)CCCC(C)Nc1ccnc2cc(Cl)ccc12)OC[C@H]1O[C@@](C#N)(c2ccc3c(N)ncnn23)[C@H](O)[C@@H]1O (stereo partly shown) [Compound 069] | – | – | – | – | > 0.5 | > 0.5 | > 0.5 | > 0.5
10 | CCCC(CCC)C(=O)OCO[P@](=O)(N[C@@H](C)C(=O)OCC(CC)CC)OC[C@H]1O[C@@](C#N)(c2ccc3c(N)ncnn23)[C@H](O)[C@@H]1O [Compound 070] | – | – | – | – | 0.1 to 0.5 | 0.1 to 0.5 | 0.1 to 0.5 | > 0.5
11 | CCCC(CCC)C(=O)OCO[P@@](=O)(N[C@@H](C)C(=O)OCC(CC)CC)OC[C@H]1O[C@@](C#N)(c2ccc3c(N)ncnn23)[C@H](O)[C@@H]1O [Compound 071] | – | – | – | – | < 0.1 | < 0.1 | < 0.1 | < 0.1
12 | CCCC(CCC)C(=O)OCO[P@](=O)(N[C@@H](C)C(=O)OC(C)C)OC[C@H]1O[C@@](C#N)(c2ccc3c(N)ncnn23)[C@H](O)[C@@H]1O [Compound 074] | – | – | – | – | < 0.1 | < 0.1 | < 0.1 | 0.1 to 0.5
13 | CCCC(CCC)C(=O)OCO[P@@](=O)(N[C@@H](C)C(=O)OC(C)C)OC[C@H]1O[C@@](C#N)(c2ccc3c(N)ncnn23)[C@H](O)[C@@H]1O [Compound 075] | – | – | – | – | 0.1 to 0.5 | 0.1 to 0.5 | 0.1 to 0.5 | > 0.5
14 | CCC(CC)COC(=O)[C@H](C)N[P@@](=O)(OCOC(=O)OC(C)C)OC[C@H]1O[C@@](C#N)(c2ccc3c(N)ncnn23)[C@H](O)[C@@H]1O [Compound 076] | – | – | – | – | < 0.1 | 0.1 to 0.5 | 0.1 to 0.5 | 0.1 to 0.5
15 | CCN(CC)Cc1cc(Nc2ccnc3cc(Cl)ccc23)ccc1O[P@](=O)(N[C@@H](C)C(=O)OC(C)C)OC[C@H]1O[C@@](C#N)(c2ccc3c(N)ncnn23)[C@H](O)[C@@H]1O [Compound 086] | > 0.5 | > 0.5 | > 0.5 | > 0.5 | – | – | – | –
16 | CCN(CC)Cc1cc(Nc2ccnc3cc(Cl)ccc23)ccc1O[P@](=O)(N[C@@H](C)C(=O)OC)OC[C@H]1O[C@@](C#N)(c2ccc3c(N)ncnn23)[C@H](O)[C@@H]1O [Compound 087] | > 0.5 | > 0.5 | > 0.5 | > 0.5 | – | – | – | –

Row | SMILES | EC50 (229E; [1]) [µM] | EC90 (229E; [2]) [µM] | EC50 (OC43; [3]) [µM] | EC90 (OC43; [3]) [µM] | EC50 (229E; [4]) [µM] | EC90 (229E; [5]) [µM] | EC50 (OC43; [6]) [µM] | EC90 (OC43; [6]) [µM]
17 | CCOC(=O)[C@H](C)N[P@](=O)(OC[C@H]1O[C@@](C#N)(c2ccc3c(N)ncnn23)[C@H](O)[C@@H]1O)Oc1ccc(Nc2ccnc3cc(Cl)ccc23)cc1CN(CC)CC [Compound 088] | > 0.5 | > 0.5 | > 0.5 | > 0.5 | – | – | – | –
18 | N#C[C@@]1(c2ccc3c(N)ncnn23)O[C@@H]2COP(=O)(O)O[C@H]2[C@H]1O [Compound 094] | – | – | – | – | > 0.5 | > 0.5 | > 0.5 | > 0.5
19 | CCCC(CCC)C(=O)OCO[P@](=O)(N[C@@H](C)C(=O)OC)OC[C@H]1O[C@@](C#N)(c2ccc3c(N)ncnn23)[C@H](O)[C@@H]1O [Compound 095] | – | – | – | – | < 0.1 | 0.1 to 0.5 | < 0.1 | 0.1 to 0.5
20 | CCCC(CCC)C(=O)OCO[P@@](=O)(N[C@@H](C)C(=O)OC)OC[C@H]1O[C@@](C#N)(c2ccc3c(N)ncnn23)[C@H](O)[C@@H]1O [Compound 096] | – | – | – | – | < 0.1 | < 0.1 | 0.1 to 0.5 | 0.1 to 0.5
21 | CCCC(CCC)C(=O)OCO[P@](=O)(N[C@@H](C)C(=O)OCC)OC[C@H]1O[C@@](C#N)(c2ccc3c(N)ncnn23)[C@H](O)[C@@H]1O [Compound 097] | – | – | – | – | < 0.1 | 0.1 to 0.5 | 0.1 to 0.5 | 0.1 to 0.5
22 | CCCC(CCC)C(=O)OCO[P@@](=O)(N[C@@H](C)C(=O)OCC)OC[C@H]1O[C@@](C#N)(c2ccc3c(N)ncnn23)[C@H](O)[C@@H]1O [Compound 098] | – | – | – | – | < 0.1 | < 0.1 | < 0.1 | 0.1 to 0.5
23 | CCC(CC)COC(=O)[C@H](C)NP(=O)(OCC(=O)OC(C)C)OC[C@H]1O[C@@](C#N)(c2ccc3c(N)ncnn23)[C@H](O)[C@@H]1O (stereo partly shown) [Compound 103] | – | – | – | – | > 0.5 | > 0.5 | > 0.5 | > 0.5
24 | CCC(CC)COC(=O)[C@H](C)NP(=O)(OCOC(=O)C(C)C)OC[C@H]1O[C@@](C#N)(c2ccc3c(N)ncnn23)[C@H](O)[C@@H]1O (stereo partly shown) [Compound 104] | – | – | – | – | > 0.5 | > 0.5 | > 0.5 | > 0.5
25 | CCC(CC)COC(=O)[C@H](C)NP(=O)(OC[C@H]1O[C@@](C#N)(c2ccc3c(N)ncnn23)[C@H](O)[C@@H]1O)Oc1ccc(N)cc1C(=O)O (stereo partly shown) [Compound 107] | > 0.5 | > 0.5 | > 0.5 | > 0.5 | – | – | – | –
26 | CCCC(CCC)C(=O)OCO[P@](=O)(NC(C)(C)C(=O)OCC(CC)CC)OC[C@H]1O[C@@](C#N)(c2ccc3c(N)ncnn23)[C@H](O)[C@@H]1O [Compound 120] | – | – | – | – | < 0.1 | 0.1 to 0.5 | < 0.1 | 0.1 to 0.5
27 | CCCC(CCC)C(=O)OCO[P@@](=O)(NC(C)(C)C(=O)OCC(CC)CC)OC[C@H]1O[C@@](C#N)(c2ccc3c(N)ncnn23)[C@H](O)[C@@H]1O [Compound 121] | – | – | – | – | 0.1 to 0.5 | 0.1 to 0.5 | 0.1 to 0.5 | > 0.5
28 | CCCC(CCC)C(=O)OCO[P@](=O)(NC(C)(C)C(=O)OC(C)C)OC[C@H]1O[C@@](C#N)(c2ccc3c(N)ncnn23)[C@H](O)[C@@H]1O [Compound 122] | – | – | – | – | 0.1 to 0.5 | 0.1 to 0.5 | 0.1 to 0.5 | 0.1 to 0.5
29 | CCCC(CCC)C(=O)OCO[P@@](=O)(NC(C)(C)C(=O)OC(C)C)OC[C@H]1O[C@@](C#N)(c2ccc3c(N)ncnn23)[C@H](O)[C@@H]1O [Compound 123] | – | – | – | – | 0.1 to 0.5 | 0.1 to 0.5 | 0.1 to 0.5 | > 0.5
30 | CCC(CC)COC(=O)[C@H](C)N[P@]1(=O)OC[C@H]2O[C@@](C#N)(c3ccc4c(N)ncnn34)[C@H](O)[C@@H]2O1 [Compound 126] | – | – | – | – | < 0.1 | 0.1 to 0.5 | < 0.1 | 0.1 to 0.5
31 | N#C[C@@]1(c2ccc3c(N)ncnn23)O[C@H](COP(=O)(OCOC(=O)C2CCCC2)OCOC(=O)C2CCCC2)[C@@H](O)[C@H]1O [Compound 265] | – | – | – | – | > 0.5 | > 0.5 | – | –
32 | N#C[C@@]1(c2ccc3c(N)ncnn23)O[C@H](COP(=O)(OCOC(=O)OC2CCCC2)OCOC(=O)OC2CCCC2)[C@@H](O)[C@H]1O [Compound 277] | – | – | – | – | < 0.1 | 0.1 to 0.5 | – | –
